Assay results from patent US11149018B2, “Substituted N-arylethyl-2-aminoquinoline-4-carboxamides and use thereof” (Bayer Aktiengesellschaft, priority 2017, dated 2021).

Each compound was assayed against FP receptor (Homo sapiens (Human), UniProt P43088) (assay: In vitro test of inhibition of human FP receptor activity (PGF2α-induced calcium flux in FP-expressing CHEM1 cells)). Conditions: PGF2α 2 nM, some mean values of multiple determinations.
Assay type: cell-based
Outline: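 FP antagonism in FP-expressing CHEM1 cells loaded with Fluo-8. Compound preincubated 10 min at 37° C, then receptor stimulated with 2 nM (final) PGF2α in calcium-free Tyrode with 2 mM CaCl2.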

Chain of FP receptor (P43088 whole entry): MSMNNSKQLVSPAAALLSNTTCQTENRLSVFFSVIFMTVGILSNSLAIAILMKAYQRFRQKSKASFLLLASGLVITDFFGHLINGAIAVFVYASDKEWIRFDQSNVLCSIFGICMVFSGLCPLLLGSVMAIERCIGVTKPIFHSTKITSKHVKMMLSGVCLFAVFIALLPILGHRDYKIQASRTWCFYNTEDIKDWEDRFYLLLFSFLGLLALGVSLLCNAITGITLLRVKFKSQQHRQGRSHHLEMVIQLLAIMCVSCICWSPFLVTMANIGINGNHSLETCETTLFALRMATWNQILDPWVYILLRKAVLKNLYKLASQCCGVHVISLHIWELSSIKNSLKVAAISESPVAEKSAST

SMILES | IC50 [nM]
Cc1c(N(C)CCc2ccccc2)nc2ccc(Br)cc2c1C(=O)NCC(CCC(=O)O)c1ccccc1Cl (racemic) [Example 95, (+/−)-5-[({6-Bromo-3-methyl-2-[methyl(2-phenylethyl)amino]quinolin-4-yl}carbonyl)amino]-4-(2-chlorophenyl)pentanoic acid] | 65
Cc1c(N2CC=CC2)nc2ccc(Br)cc2c1C(=O)NCC(CCC(=O)O)c1cc(F)ccc1Cl (racemic) [Example 15, (+/−)-5-({[6-Bromo-2-(2,5-dihydro-1H-pyrrol-1-yl)-3-methylquinolin-4-yl]carbonyl}amino)-4-(2-chloro-5-fluorophenyl)pentanoic acid] | 48
Cc1c(N2CCC(F)(F)CC2)nc2ccc(Br)cc2c1C(=O)NCC(CCC(=O)O)c1cc(F)ccc1Cl (racemic) [Example 8, (+/−)-5-({[6-Bromo-2-(4,4-difluoropiperidin-1-yl)-3-methylquinolin-4-yl]carbonyl}amino)-4-(2-chloro-5-fluorophenyl)pentanoic acid] | 58
Cc1c(N2CCCC(F)(F)C2)nc2ccc(Br)cc2c1C(=O)NCC(CCC(=O)O)c1c(F)cccc1F (racemic) [Example 250, (+/−)-5-({[6-Bromo-2-(3,3-difluoropiperidin-1-yl)-3-methylquinolin-4-yl]carbonyl}amino)-4-(2,6-difluorophenyl)pentanoic acid] | 20
Cc1c(N2CCSCC2)nc2ccc(Br)cc2c1C(=O)NCC(CCC(=O)O)c1ccccc1Cl (single isomer, unassigned; (-)) [Example 27, (−)-5-({[6-Bromo-3-methyl-2-(thiomorpholin-4-yl)quinolin-4-yl]carbonyl}amino)-4-(2-chlorophenyl)pentanoic acid] | 14
Cc1c(N2CCCC(C)C2)nc2ccc(Br)cc2c1C(=O)NCC(CCC(=O)O)c1ccccc1Cl (centres unmarked) [Example 45, 5-[({6-Bromo-3-methyl-2-[3-methylpiperidin-1-yl]quinolin-4-yl}carbonyl)amino]-4-(2-chlorophenyl)pentanoic acid] | 4.7
Cc1c(N2CCCC(F)(F)C2)nc2ccc(Br)cc2c1C(=O)NCC(CCC(=O)O)c1c(F)cccc1F (single isomer, unassigned; (+)) [Example 251, (+)-5-({[6-Bromo-2-(3,3-difluoropiperidin-1-yl)-3-methylquinolin-4-yl]carbonyl}amino)-4-(2,6-difluorophenyl)pentanoic acid] | 72
Cc1c(N2CCCC(C)C2)nc2ccc(Br)cc2c1C(=O)NCC(CCC(=O)O)c1ccccc1C(F)(F)F (centres unmarked) [Example 125, 5-[({6-Bromo-3-methyl-2-[3-methylpiperidin-1-yl]quinolin-4-yl}carbonyl)amino]-4-[2-(trifluoromethyl)phenyl]pentanoic acid] | 5.2
Cc1ccccc1C(CCC(=O)O)CNC(=O)c1c(C)c(N2CCCC2)nc2ccc(Br)cc12 (racemic) [Example 232, (+/−)-5-({[6-Bromo-3-methyl-2-(pyrrolidin-1-yl)quinolin-4-yl]carbonyl}amino)-4-(2-methylphenyl)pentanoic acid] | 18
Cc1c(N2CCCC(F)C2)nc2ccc(Br)cc2c1C(=O)NCC(CCC(=O)O)c1ccccc1C(F)(F)F (single isomer, unassigned) [Example 192, 5-[({6-Bromo-2-[3-fluoropiperidin-1-yl]-3-methylquinolin-4-yl}carbonyl)amino]-4-[2-(trifluoromethyl)phenyl]pentanoic acid] | 5.6
Cc1ccccc1C(CCC(=O)O)CNC(=O)c1c(C)c(N2CCCC(F)(F)C2)nc2ccc(Br)cc12 (single isomer, unassigned; (+)) [Example 231, (+)-5-({[6-Bromo-2-(3,3-difluoropiperidin-1-yl)-3-methylquinolin-4-yl]carbonyl}amino)-4-(2-methylphenyl)pentanoic acid] | 39
CCC1CCCN(c2nc3ccc(Br)cc3c(C(=O)NCC(CCC(=O)O)c3ccccc3OC(F)(F)F)c2C)C1 (single isomer, unassigned; (+)) [Example 205, (+)-5-[({6-Bromo-2-[3-ethylpiperidin-1-yl]-3-methylquinolin-4-yl}carbonyl)amino]-4-[2-(trifluoromethoxy)phenyl]pentanoic acid] | 0.41
Cc1ccccc1C(CCC(=O)O)CNC(=O)c1c(C)c(N2CCCCCC2)nc2ccc(Br)cc12 (racemic) [Example 243, (+/−)-5-({[2-(Azepan-1-yl)-6-bromo-3-methylquinolin-4-yl]carbonyl}amino)-4-(2-methylphenyl)pentanoic acid] | 11
Cc1c(N2CCCCC2)nc2ccc(Br)cc2c1C(=O)NCC(CCC(=O)O)c1c(F)cccc1C(F)(F)F (racemic) [Example 160, (+/−)-5-({[6-Bromo-3-methyl-2-(piperidin-1-yl)quinolin-4-yl]carbonyl}amino)-4-[2-fluoro-6-(trifluoromethyl)phenyl]pentanoic acid] | 5.3
Cc1c(N2CCCC2)nc2ccc(Br)cc2c1C(=O)NCC(CCC(=O)O)c1ccccc1C(F)(F)F (single isomer, unassigned; (+)) [Example 115, (+)-5-({[6-Bromo-3-methyl-2-(pyrrolidin-1-yl)quinolin-4-yl]carbonyl}amino)-4-[2-(trifluoromethyl)phenyl]pentanoic acid] | 29
Cc1c(N2CCCC(F)C2)nc2ccc(Br)cc2c1C(=O)NCC(CCC(=O)O)c1ccccc1C(F)(F)F (single isomer, unassigned; (+)) [Example 190, (+)-5-[({6-Bromo-2-[3-fluoropiperidin-1-yl]-3-methylquinolin-4-yl}carbonyl)amino]-4-[2-(trifluoromethyl)phenyl]pentanoic acid] | 11
CCCCNc1nc2ccc(Br)cc2c(C(=O)NCC(CCC(=O)O)c2ccccc2Cl)c1C (racemic) [Example 101, (+/−)-5-({[6-Bromo-2-(butylamino)-3-methylquinolin-4-yl]carbonyl}amino)-4-(2-chlorophenyl)pentanoic acid] | 450
Cc1c(N2CCCCCC2)nc2ccc(Br)cc2c1C(=O)NCC(CCC(=O)O)c1ccccc1C(F)(F)F (single isomer, unassigned; (+)) [Example 122, (+)-5-({[2-(Azepan-1-yl)-6-bromo-3-methylquinolin-4-yl]carbonyl}amino)-4-[2-(trifluoromethyl)phenyl]pentanoic acid] | 6.7
Cc1c(N2CCCC2)nc2ccc(Br)cc2c1C(=O)NCC(CCC(=O)O)c1ccccc1OC(F)(F)F (racemic) [Example 129, (+/−)-5-({[6-Bromo-3-methyl-2-(pyrrolidin-1-yl)quinolin-4-yl]carbonyl}amino)-4-[2-(trifluoromethoxy)phenyl]pentanoic acid] | 6.1
Cc1c(N2CCCC(F)(F)C2)nc2ccc(Br)cc2c1C(=O)NCC(CCC(=O)O)c1ccccc1Cl (racemic) [Example 50, (+/−)-5-({[6-Bromo-2-(3,3-difluoropiperidin-1-yl)-3-methylquinolin-4-yl]carbonyl}amino)-4-(2-chlorophenyl)pentanoic acid] | 3
COc1ccccc1C(CCC(=O)O)CNC(=O)c1c(C)c(N2CCCC(F)(F)C2)nc2ccc(Br)cc12 (single isomer, unassigned; (+)) [Example 289, (+)-5-({[6-Bromo-2-(3,3-difluoropiperidin-1-yl)-3-methylquinolin-4-yl]carbonyl}amino)-4-(2-methoxyphenyl)pentanoic acid] | 2.4
Cc1c(N2CCCC(C#N)C2)nc2ccc(Br)cc2c1C(=O)NCC(CCC(=O)O)c1ccccc1Cl (centres unmarked) [Example 76, 5-[({6-Bromo-2-[3-cyanopiperidin-1-yl]-3-methylquinolin-4-yl}carbonyl)amino]-4-(2-chlorophenyl)pentanoic acid] | 670
Cc1c(N2CCCC(C)(C)C2)nc2ccc(Br)cc2c1C(=O)NCC(CCC(=O)O)c1ccccc1Cl (racemic) [Example 42, (+/−)-5-({[6-Bromo-2-(3,3-dimethylpiperidin-1-yl)-3-methylquinolin-4-yl]carbonyl}amino)-4-(2-chlorophenyl)pentanoic acid] | 130
Cc1c(N2CCCC(O)C2)nc2ccc(Br)cc2c1C(=O)NCC(CCC(=O)O)c1ccccc1Cl (centres unmarked) [Example 55, 5-[({6-Bromo-2-[3-hydroxypiperidin-1-yl]-3-methylquinolin-4-yl}carbonyl)amino]-4-(2-chlorophenyl)pentanoic acid] | 110
Cc1c(N2CCCC(C)(O)C2)nc2ccc(Br)cc2c1C(=O)NCC(CCC(=O)O)c1ccccc1Cl (centres unmarked) [Example 62, 5-[({6-Bromo-2-[3-hydroxy-3-methylpiperidin-1-yl]-3-methylquinolin-4-yl}carbonyl)amino]-4-(2-chlorophenyl)pentanoic acid] | 110
Cc1c(N2CCC(C)CC2)nc2ccc(Br)cc2c1C(=O)NCC(CCC(=O)O)c1cc(F)ccc1Cl (racemic) [Example 18, (+/−)-5-({[6-Bromo-3-methyl-2-(4-methylpiperidin-1-yl)quinolin-4-yl]carbonyl}amino)-4-(2-chloro-5-fluorophenyl)pentanoic acid] | 80
CCC1CCCN(c2nc3ccc(Br)cc3c(C(=O)NCC(CCC(=O)O)c3ccccc3C(F)(F)F)c2C)C1 (centres unmarked) [Example 124, 5-[({6-Bromo-2-[3-ethylpiperidin-1-yl]-3-methylquinolin-4-yl}carbonyl)amino]-4-[2-(trifluoromethyl)phenyl]pentanoic acid] | 2.8
Cc1c(N2CCCC(F)(F)C2)nc2ccc(Br)cc2c1C(=O)NCC(CCC(=O)O)c1cc(F)ccc1F (single isomer, unassigned; (+)) [Example 263, (+)-5-({[6-Bromo-2-(3,3-difluoropiperidin-1-yl)-3-methylquinolin-4-yl]carbonyl}amino)-4-(2,5-difluorophenyl)pentanoic acid] | 28
Cc1c(N2C[C@@H](F)[C@@H](F)C2)nc2ccc(Br)cc2c1C(=O)NCC(CCC(=O)O)c1ccccc1Cl (mixture of isomers) [Example 70, (+/−)-5-[({6-Bromo-2-[cis-3,4-difluoropyrrolidin-1-yl]-3-methylquinolin-4-yl}carbonyl)amino]-4-(2-chlorophenyl)pentanoic acid] | 16
